# From US8252737B2, “Antimicrobial peptides and methods of use” (priority 2004, dated 2012)
# Like-named read-outs stand apart in the source and are kept apart here. Square brackets hold non-standard residues; d marks the D form. Peptide text beside a SMILES is read from it.
# Key:
# [1] = Circular dichroism spectroscopy of helical structure (benign buffer and 50% TFE); type: physicochemical
# How it was run: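 Peptide CD spectra at 25 °C, 190–250 nm, in benign buffer (50 mM KH2PO4/K2HPO4, 100 mM KCl, pH 7) and in the same buffer with 50% TFE. Samples were a 10-fold dilution of ~500 μM stock. Mean residue molar ellipticity at 222 nm gave relative α-helicity.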
# [2] = tested on: human erythrocytes; test: Hemolytic activity (MHC), Protocol A, 12 hours; details: for minimal hemolytic concentration (MHC): incubation for 12 hours at 37° C. (Tables 7 and 8)
# Method: Measurement of Hemolytic Activity—Protocol A: Peptide samples were added to 1% human erythrocytes in phosphate buffered saline (0.08M NaCl; 0.043M Na2PO4; 0.011M KH2PO4) and reactions were incubated at 37° C. for 12 hours in microtiter plates. Peptide samples were diluted 2 fold in order to determine the concentration that produced no hemolysis. […] Hemoglobin release was determined spectrophotometrically at 562 nm. The hemolytic titer was the highest 2-fold dilution of the peptide that still caused release of hemoglobin from erythrocytes. The control for no release of hemoglobin was a sample of 1% erythrocytes without any peptide added. […] Peptide samples were diluted 2 fold in order to determine the concentration that produced no hemolysis. […] Hemoglobin release was determined spectrophotometrically at 570 nm. The hemolytic titer was the highest 2-fold dilution of the peptide that still caused release of hemoglobin from erythrocytes. The control for no release of hemoglobin was a sample of 1% erythrocytes without any peptide added.
# [3] = tested on: gram-negative bacteria; test: MIC, microtiter dilution, Gram-negative bacteria (geometric mean of 6 strains); type: cell-based; details: for MIC (μg/ml) GM: geometric mean of MIC values from all 6 Gram-negative strains of Table 11; for MIC (μg/ml) Gram-negative: geometric mean MIC, Table 9; for geometric mean MIC against Gram-negative bacteria: 6 strains of Table 7; for fold improvement on the average MIC compared to V681: gram-negative bacteria, geometric mean comparison, Table 7
# How it was run: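 Microtiter broth dilution in LB no-salt or Mueller-Hinton broth (brain heart infusion for P. aeruginosa clinical isolates, inoculum 1×10^6 CFU/ml); overnight 37° C. cultures diluted, plates incubated 37° C. 24 h. MIC is lowest peptide concentration inhibiting growth; value is geometric mean over 6 strains.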
# [4] = 5° C., 100 mM KCl, 50 mM PO4 pH 7.4
# [5] = 5° C., relative to D-V681 in 50% TFE
# [6] = 5° C., benign buffer pH 7.4 containing 50% TFE
# [7] = 5° C., pH 7.4 benign, relative to D-V681 in 50% TFE
# [8] = 25° C., relative to NAL in 50% TFE
# [9] = 25° C., benign buffer (100 mM KCl, 50 mM PO4 pH 7.0)
# [10] = 25° C., benign buffer diluted 1:1 (v/v) with TFE
# [11] = 25° C., benign buffer, relative to NAL in 50% TFE
# [12] = minimal hemolytic concentration on human red blood cells (hRBC), Table 9
Compound,"[θ]222 Benign [1, 4] [deg · cm^2 · dmol^−1]","% helix 50% TFE [1, 5] [%]","[θ]222 50% TFE [1, 6] [deg · cm^2 · dmol^−1]","% helix Benign [1, 7] [%]","% helix 50% TFE [1, 8] [%]","[θ]222 Benign [1, 9]","[θ]222 50% TFE [1, 10]","% helix Benign [1, 11] [%]",fold decrease in hemolytic activity compared to the L-diastereomer [2],minimal hemolytic concentration (MHC) [2] [µg/mL],MIC (μg/ml) GM [3] [µg/mL],"MHC [2, 12] [µg/mL]",MIC (μg/ml) Gram-negative [3] [µg/mL],geometric mean MIC against Gram-negative bacteria [3] [µg/mL],MHC [2] [µg/mL],fold improvement on the average MIC compared to V681 [3],fold decrease in hemolytic activity compared to V681 ([2]; 12 hours)
CC[C@H](C)[C@H](NC(=O)[C@H](C)NC(=O)[C@H](CCCCN)NC(=O)[C@H](CC(C)C)NC(=O)[C@H](C)NC(=O)[C@@H](NC(=O)[C@H](Cc1c[nH]cn1)NC(=O)[C@H](CC(C)C)NC(=O)[C@@H](NC(=O)[C@@H](NC(=O)[C@H](CCCCN)NC(=O)[C@@H](C)NC(=O)[C@H](C)NC(=O)[C@H](CO)NC(=O)[C@H](CCCCN)NC(=O)[C@H](Cc1ccccc1)NC(=O)[C@@H](NC(=O)[C@H](CCCCN)NC(=O)[C@H](CC(C)C)NC(=O)[C@H](Cc1ccccc1)NC(=O)[C@H](CO)NC(=O)[C@H](CCCCN)NC(=O)[C@H](Cc1c[nH]c2ccccc12)NC(=O)[C@H](CCCCN)NC(C)=O)[C@@H](C)O)[C@@H](C)O)C(C)C)[C@@H](C)O)C(=O)N[C@@H](CO)C(=O)N[C@@H](CO)C(N)=O [NAD],−4000,89,−25000,14,85,"−2,850 deg · cm^2 · dmol^−1","−24,650 deg · cm^2 · dmol^−1",10,8,250,3.1,,,,,,
CC[C@H](C)[C@H](NC(=O)[C@H](C)NC(=O)[C@H](CCCCN)NC(=O)[C@H](CC(C)C)NC(=O)[C@H](C)NC(=O)[C@@H](NC(=O)[C@H](Cc1c[nH]cn1)NC(=O)[C@H](CC(C)C)NC(=O)[C@@H](NC(=O)[C@@H](NC(=O)[C@H](CCCCN)NC(=O)[C@@H](CCCCN)NC(=O)[C@H](C)NC(=O)[C@H](CO)NC(=O)[C@H](CCCCN)NC(=O)[C@H](Cc1ccccc1)NC(=O)[C@@H](NC(=O)[C@H](CCCCN)NC(=O)[C@H](CC(C)C)NC(=O)[C@H](Cc1ccccc1)NC(=O)[C@H](CO)NC(=O)[C@H](CCCCN)NC(=O)[C@H](Cc1c[nH]c2ccccc12)NC(=O)[C@H](CCCCN)NC(C)=O)[C@@H](C)O)[C@@H](C)O)C(C)C)[C@@H](C)O)C(=O)N[C@@H](CO)C(=O)N[C@@H](CO)C(N)=O [NKD],,,,,82,"−2,000 deg · cm^2 · dmol^−1","−23,600 deg · cm^2 · dmol^−1",7,,,,>250.0,7.7,,,,
Ac-KWKSFLKTFKSASKTVLHTALKAISS-NH2 [NSL],,,,,95,"−1,300 deg · cm^2 · dmol^−1","−27,550 deg · cm^2 · dmol^−1",4,,125,,125.0,4.2,,,,
CC[C@H](C)[C@H](NC(=O)[C@H](C)NC(=O)[C@H](CCCCN)NC(=O)[C@H](CC(C)C)NC(=O)[C@H](C)NC(=O)[C@@H](NC(=O)[C@H](Cc1c[nH]cn1)NC(=O)[C@H](CC(C)C)NC(=O)[C@@H](NC(=O)[C@@H](NC(=O)[C@H](CCCCN)NC(=O)[C@@H](NC(=O)[C@H](C)NC(=O)[C@@H](CO)NC(=O)[C@H](CCCCN)NC(=O)[C@H](Cc1ccccc1)NC(=O)[C@@H](NC(=O)[C@H](CCCCN)NC(=O)[C@H](CC(C)C)NC(=O)[C@H](Cc1ccccc1)NC(=O)[C@H](CO)NC(=O)[C@H](CCCCN)NC(=O)[C@H](Cc1c[nH]c2ccccc12)NC(=O)[C@H](CCCCN)NC(C)=O)[C@@H](C)O)C(C)C)[C@@H](C)O)C(C)C)[C@@H](C)O)C(=O)N[C@@H](CO)C(=O)N[C@@H](CO)C(N)=O [PSD],,,,,90,"−2,800 deg · cm^2 · dmol^−1","−26,000 deg · cm^2 · dmol^−1",10,,,,15.6,2.9,,,,
Ac-KWKSFLKTFKSALKTVLHTALKAISS-NH2 [NLL],,,,,98,"−20,600 deg · cm^2 · dmol^−1","−28,250 deg · cm^2 · dmol^−1",71,,7.8,,,,12.7,,,
CC[C@H](C)[C@H](NC(=O)[C@H](C)NC(=O)[C@H](CCCCN)NC(=O)[C@H](CC(C)C)NC(=O)[C@H](C)NC(=O)[C@@H](NC(=O)[C@H](Cc1c[nH]cn1)NC(=O)[C@H](CC(C)C)NC(=O)[C@@H](NC(=O)[C@@H](NC(=O)[C@H](CCCCN)NC(=O)[C@@H](NC(=O)[C@H](C)NC(=O)[C@@H](CCCCN)NC(=O)[C@H](CCCCN)NC(=O)[C@H](Cc1ccccc1)NC(=O)[C@@H](NC(=O)[C@H](CCCCN)NC(=O)[C@H](CC(C)C)NC(=O)[C@H](Cc1ccccc1)NC(=O)[C@H](CO)NC(=O)[C@H](CCCCN)NC(=O)[C@H](Cc1c[nH]c2ccccc12)NC(=O)[C@H](CCCCN)NC(C)=O)[C@@H](C)O)C(C)C)[C@@H](C)O)C(C)C)[C@@H](C)O)C(=O)N[C@@H](CO)C(=O)N[C@@H](CO)C(N)=O [PKD] (Ac-KWKSFLKTFK[dK]AVKTVLHTALKAISS-NH2),,,,,96,"−2,500 deg · cm^2 · dmol^−1","−27,800 deg · cm^2 · dmol^−1",9,,,,,2.6,,31.2,3.4,
CC[C@H](C)[C@H](NC(=O)[C@H](C)NC(=O)[C@H](CCCCN)NC(=O)[C@H](CC(C)C)NC(=O)[C@H](C)NC(=O)[C@@H](NC(=O)[C@H](Cc1cnc[nH]1)NC(=O)[C@H](CC(C)C)NC(=O)[C@@H](NC(=O)[C@@H](NC(=O)[C@H](CCCCN)NC(=O)[C@H](CCCCN)NC(=O)[C@H](C)NC(=O)[C@H](CO)NC(=O)[C@H](CCCCN)NC(=O)[C@H](Cc1ccccc1)NC(=O)[C@@H](NC(=O)[C@H](CCCCN)NC(=O)[C@H](CC(C)C)NC(=O)[C@H](Cc1ccccc1)NC(=O)[C@H](CO)NC(=O)[C@H](CCCCN)NC(=O)[C@H](Cc1c[nH]c2ccccc12)NC(=O)[C@H](CCCCN)NC(C)=O)[C@@H](C)O)[C@@H](C)O)C(C)C)[C@@H](C)O)C(=O)N[C@@H](CO)C(=O)N[C@@H](CO)C(N)=O [NKL],−1400,96,−27000,5,91,"−1,450 deg · cm^2 · dmol^−1","−26,250 deg · cm^2 · dmol^−1",5,,,3.9,,,3.1,,2.8,> 32
Ac-KWKSFLKTFKSAGKTVLHTALKAISS-NH2 [NG],,,,,84,,"−24,350 deg · cm^2 · dmol^−1",8,,125,,125.0,4.1,,,,
CC[C@H](C)[C@H](NC(=O)[C@H](C)NC(=O)[C@H](CCCCN)NC(=O)[C@H](CC(C)C)NC(=O)[C@H](C)NC(=O)[C@@H](NC(=O)[C@H](Cc1c[nH]cn1)NC(=O)[C@H](CC(C)C)NC(=O)[C@@H](NC(=O)[C@@H](NC(=O)[C@H](CCCCN)NC(=O)[C@@H](NC(=O)[C@H](C)NC(=O)[C@H](NC(=O)[C@H](CCCCN)NC(=O)[C@H](Cc1ccccc1)NC(=O)[C@@H](NC(=O)[C@H](CCCCN)NC(=O)[C@H](CC(C)C)NC(=O)[C@H](Cc1ccccc1)NC(=O)[C@H](CO)NC(=O)[C@H](CCCCN)NC(=O)[C@H](Cc1c[nH]c2ccccc12)NC(=O)[C@H](CCCCN)NC(C)=O)[C@@H](C)O)C(C)C)C(C)C)[C@@H](C)O)C(C)C)[C@@H](C)O)C(=O)N[C@@H](CO)C(=O)N[C@@H](CO)C(N)=O [PVD] (Ac-KWKSFLKTFK[dV]AVKTVLHTALKAISS-NH2),,,,,72,"−2,400 deg · cm^2 · dmol^−1","−20,800 deg · cm^2 · dmol^−1",8,16,125,,125.0,6.1,,,,
